Assay results published in the supplement of paper PMC11208160.

Assay: recombinant barcode read abundance after kanamycin selection (control-corrected) (log10(CPM+1)); higher = more efficient recombination; sequences stand for … in AGTGCAGAGAAAATCGGCCAGTTTTCTCTGCCTGCAGTCCGCATGCCGT…AGATTTATGCAGCGGACTGCCTTTCTCCCAAAGTGATAAACCGGACAGTATCATGGACCGGTTTTCCCGGTAATCCGTATTTGCAAGGTTGGTTTCACT; site = the 11-nt target
How it was run: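 The screen was pooled in E. coli and paired targets with IS621 bridge RNA target-binding loops. Recombination efficiency is taken from barcode counts per million at recombinant junctions, averaged and adjusted against the control. Values, in the form log10(CPM+1), come from duplicate plating on chloramphenicol/ampicillin LB agar or on chloramphenicol/ampicillin/kanamycin with 0.1 mM IPTG.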
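Also: IS621 recombinase and bridge RNA in Escherichia coli cells.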

Row | Sequence | recombinant barcode read abundance (log10)
1 | GATACGGCTTGGGTTCTAACCTGTTGCCT (site GATACGTCTAG) | 0.0137
2 | TATCCTCCTTGGGTTCTAACCTGTTGCCG (site TATCCTCCTCG) | 0.318
3 | CATGACCCTTGGGTTCTAACCTGTTGCCT (site CATGACCCTAG) | 1.67
4 | TACCTAACTTGGGTTCTAACCTGTTGCTT (site GGTTCCTCTCC) | 0.206
5 | AGTGGGACTTGGGTTCTAACCTGTTGCCA (site AGTGGGACTTG) | 1.56
6 | GCACTAACTTGGGTTCTAACCTGTTGCCT (site GCACTAACTAG) | 1.14
7 | CGCCTCACTTGGGTTCTAACCTGTTGCCT (site CGCCTCACTAG) | 0.0456
8 | CAATACACTTGGGTTCTAACCTGTTGCCT (site CAATACACTAG) | 2.34
9 | TGTCGAGCTTGGGTTCTAACCTGTTGCGG (site TTCCGAGCTCC) | 0.00866
10 | GCTTAAACTTGGGTTCTAACCTGTTGCCT (site GCTTAAACTAG) | 1.04
11 | CCGCTACCTTGGGTTCTAACCTGTTGCCT (site CAGCTACCTAG) | 0.109
12 | CGTCGGGCTTGGGTTCTAACCTGTTGCAG (site CTTCGGGCTCT) | 0.258
13 | GCTCAGCCTTGGGTTCTAACCTGTTGCCT (site GCTCAGGCTAG) | 0.16
14 | AGCCACACTTGGGTTCTAACCTGTTGCCT (site AGCCACTCTAG) | 0.456
15 | CTTTGAGCTTGGGTTCTAACCTGTTGCAT (site CTTCGGGCTAT) | 0.0604
16 | AGGCAGACTTGGGTTCTAACCTGTTGCCA (site AGGAAGACTTG) | 0.0571
17 | CCAGGTGCTTGGGTTCTAACCTGTTGCGG (site GGCTTGACTAG) | 0.0921
18 | TTGACTGCTTGGGTTCTAACCTGTTGCCT (site TTGAATGCTAG) | 0.0744
19 | CTAAATCCTTGGGTTCTAACCTGTTGCCT (site GTAAATCCTAG) | 0.0932
20 | CCAGTAACTTGGGTTCTAACCTGTTGCCT (site CCAGTGACTAG) | 0.082
21 | GGGCAACCTTGGGTTCTAACCTGTTGCGT (site GGGCAACCTAC) | 2.84
22 | TACCGGTCTTGGGTTCTAACCTGTTGCTT (site TACCGGTCTAA) | 1.46

Row | Sequence | recombinant barcode read abundance (log10)
23 | CTGACTTCTTGGGTTCTAACCTGTTGCCT (site CTGACTTCTAG) | 0.121
24 | CTCGTTACTTGGGTTCTAACCTGTTGCCT (site CTCGTGACTAG) | 0.0469
25 | ATAAAACCTTGGGTTCTAACCTGTTGCCT (site GTAAAACCTAG) | 0.114
26 | CGGACGACTTGGGTTCTAACCTGTTGCCT (site CGGACGTCTAG) | 0.111
27 | TTCTGTCCTTGGGTTCTAACCTGTTGCCT (site TTCTCTCCTAG) | 0.0821
28 | GGAAAAGCTTGGGTTCTAACCTGTTGCTT (site GGAAAAGCTAA) | 0.268
29 | TAGATAACTTGGGTTCTAACCTGTTGCTG (site ACCCATTCTAC) | 0
30 | GTGGCTTCTTGGGTTCTAACCTGTTGCCT (site GAGGCTTCTAG) | 0.128
31 | TACGTGTCTTGGGTTCTAACCTGTTGCTA (site TGCGTGTCTCA) | 0.051
32 | TAGTGCTCTTGGGTTCTAACCTGTTGCCT (site TAGTGCTCTTG) | 0.178
33 | ATGATATCTTGGGTTCTAACCTGTTGCCT (site ATGATATCTAG) | 1.5
34 | TCCAAATCTTGGGTTCTAACCTGTTGCCT (site TCCAAATCTAG) | 0.317
35 | CTAGCGACTTGGGTTCTAACCTGTTGCGG (site CTAACGACTCC) | 0.637
36 | CCTCACTCTTGGGTTCTAACCTGTTGCTT (site CCTCAATCTAA) | 0.058
37 | CCAAAGACTTGGGTTCTAACCTGTTGCTT (site GGGTCACCTCC) | 0
38 | AGCTCACCTTGGGTTCTAACCTGTTGCCT (site AGCTCACCTAG) | 0.216
39 | GGACGCTCTTGGGTTCTAACCTGTTGCCT (site GGACGCTCTAG) | 1.83
40 | GACGATCCTTGGGTTCTAACCTGTTGCAT (site GGCGAACCTAT) | 0.077
41 | GTGTGTCCTTGGGTTCTAACCTGTTGCCT (site GTGTGTACTAG) | 0.0295
42 | AGGGAGACTTGGGTTCTAACCTGTTGCTC (site CACTTTGCTAG) | 0.151
43 | CGCTAGTCTTGGGTTCTAACCTGTTGCCT (site CGCTGGTCTAG) | 0.285
44 | CAGAATACTTGGGTTCTAACCTGTTGCGT (site CAAAATTCTAC) | 0.215

Row | Sequence | recombinant barcode read abundance (log10)
45 | GCGTTTGCTTGGGTTCTAACCTGTTGCCT (site GCGTTTGCTAG) | 1.01
46 | ATGTCCTCTTGGGTTCTAACCTGTTGCCT (site ATGTCCTCTAG) | 1.5
47 | TTACAATCTTGGGTTCTAACCTGTTGCCT (site ATACAATCTAG) | 0.31
48 | AGGCAGTCTTGGGTTCTAACCTGTTGCCT (site AGGCAGTCTAG) | 0.444
49 | TTGGTTCCTTGGGTTCTAACCTGTTGCCT (site TTGGTTCCTAG) | 2.07
50 | GAGTTGCCTTGGGTTCTAACCTGTTGCGG (site GAGTGGCCTCC) | 0.101
51 | ACACAGACTTGGGTTCTAACCTGTTGCGC (site ACATAGACTGC) | 0.00702
52 | CTTAGGGCTTGGGTTCTAACCTGTTGCCT (site CTTAGGGCTAG) | 0.419
53 | CCTCATTCTTGGGTTCTAACCTGTTGCTT (site CCTCAATCTAA) | 0.0648
54 | CCGTACTCTTGGGTTCTAACCTGTTGCCT (site CCGTACTCTAG) | 1.22
55 | CATGCCTCTTGGGTTCTAACCTGTTGCCG (site CATGCCTCTCG) | 2.17
56 | CAAGATGCTTGGGTTCTAACCTGTTGCCT (site CATGATGCTAG) | 0.366
57 | TTCTGTCCTTGGGTTCTAACCTGTTGCCT (site TTCTTTCCTAG) | 0.0428
58 | TGGATGGCTTGGGTTCTAACCTGTTGCCT (site GGGATGGCTAG) | 0.149
59 | AGCAATTCTTGGGTTCTAACCTGTTGCCT (site AGCAATTCTAG) | 0.165
60 | GACACCTCTTGGGTTCTAACCTGTTGCTT (site GACACGTCTAG) | 0.461
61 | AGGAGCCCTTGGGTTCTAACCTGTTGCTT (site AGGAGCCCTTA) | 0.271
62 | ATAGCAACTTGGGTTCTAACCTGTTGCCT (site ATAGCCACTAG) | 0.11
63 | CTGGAGACTTGGGTTCTAACCTGTTGCTT (site CTGGAGACTAA) | 1.93
64 | GCACCAACTTGGGTTCTAACCTGTTGCCT (site CCACCGACTAG) | 0.242
65 | ACTGTATCTTGGGTTCTAACCTGTTGCCT (site CCTGTATCTAG) | 0.134
66 | TCTGGCCCTTGGGTTCTAACCTGTTGCCT (site TCTGGCCCTAG) | 0.478

Row | Sequence | recombinant barcode read abundance (log10)
67 | CCTCAGGCTTGGGTTCTAACCTGTTGCCC (site CCTCAGGCTTG) | 0.399
68 | GCTAACACTTGGGTTCTAACCTGTTGCCT (site CCTAACACTAG) | 0.153
69 | GTAGGGACTTGGGTTCTAACCTGTTGCCT (site GGAGGGACTAG) | 0.439
70 | GCCCCGCCTTGGGTTCTAACCTGTTGCAG (site GCCTCGCCTCT) | 0.0556
71 | CATTTCACTTGGGTTCTAACCTGTTGCCT (site CATTTCACTAG) | 0.379
72 | TAAGCTACTTGGGTTCTAACCTGTTGCTG (site TAAGCCTCTCA) | 0.0237
73 | TAGTGCTCTTGGGTTCTAACCTGTTGCCT (site TAGTGCTCTAG) | 1.12
74 | GGTTCACCTTGGGTTCTAACCTGTTGCAG (site GGTTGACCTAT) | 0.0489
75 | TAACCTCCTTGGGTTCTAACCTGTTGCCT (site TAACCTGCTAG) | 0.0867
76 | GCCGAGTCTTGGGTTCTAACCTGTTGCTC (site GCCGAGTCTAA) | 0.191
77 | GACACGCCTTGGGTTCTAACCTGTTGCTT (site GACACGCCTAA) | 0.201
78 | ACGACTGCTTGGGTTCTAACCTGTTGCCT (site ACGACTACTAG) | 0.166
79 | TGACGTCCTTGGGTTCTAACCTGTTGCCT (site TGACGTCCTAG) | 0.253
80 | GGTCGCGCTTGGGTTCTAACCTGTTGCCT (site GGTCGTGCTAG) | 0.0211
81 | AAGGGCCCTTGGGTTCTAACCTGTTGCCT (site AAGGGCCCTAG) | 2.1
82 | CTAGTTACTTGGGTTCTAACCTGTTGCCT (site CTAGTTACTAG) | 1.11
83 | AGCTCACCTTGGGTTCTAACCTGTTGCCT (site AGCTCATCTAG) | 0.147
84 | CTTAACACTTGGGTTCTAACCTGTTGCCG (site CTTAACACTCG) | 0.683
85 | CGCTAGTCTTGGGTTCTAACCTGTTGCCT (site CGCTAGTCTAG) | 0.451
86 | CGCGCCTCTTGGGTTCTAACCTGTTGCCG (site GGCCCCTCTCG) | 0.362
